ChEMBL document CHEMBL1132318, “Hydroxylated decahydroquinolines as ligands for the vesicular acetylcholine transporter: synthesis and biological evaluation” (J Med Chem, 1999)

What was measured:
[1] = Displacement of [3H]vesamicol from Vesicular Acetylcholine Transporter (VAChT)
[2] = Binding affinity against Sigma opioid receptor type 1 in guinea pig brain membranes using [3H](+)-pentazocine as radioligand

Row | SMILES | Ki [1] | Ki [2]
1 | O[C@@H]1CCN(Cc2cccc(I)c2)C[C@H]1N1CCC(c2ccccc2)CC1 (racemic) | 0.13 nM | 
2 | O[C@@H]1CCCC[C@H]1N1CCC(c2ccccc2)CC1 [VESAMICOL] |  | 26 nM
